Reference: the supplement of paper PMC10307832

Legend:
Assay in all cases: relative viability (nuclei count vs DMSO), 5 days (fraction); higher = more cells survive
[1] = compound: CC1=CN2C(=O)C=C(N=C2C(=C1)C(C)NC3=CC=CC=C3)N4CCOCC4 [TGX 221] + C[C@]1(O)C[C@@H](c2nc(-c3ccc4ccc(-c5ccccc5)nc4c3)c3c(N)nccn32)C1 [Linsitinib] (partner 1 µM)
Summary of the method: (§1)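 After 5 days of treatment, lung cancer cells in 1536-well plates were fixed and stained in a single step (final 0.05% Triton X-100, 1% formaldehyde, 1 ug/ml Hoechst) and their nuclei counted on 4× images. Treatment had been applied by pin tool the day after seeding as one drug alone or as a fixed anchor-drug dose with five library-drug doses (not always all listed) in √10 steps. Relative viability is the nuclei count of treated wells divided by that of vehicle wells, and values are medians of duplicate plates.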

[2] = compound: C1=CC=C(C(=C1)C2=CC=C(C=C2)C3=CSC4=C3C(=C(C(=O)N4)C#N)O)O + NC(=O)Nc1cc(-c2cccc(F)c2)sc1C(=O)N[C@H]1CCCNC1 [AZD7762] (partner 0.2 µM)
Summary of the method: as §1

[3] = compound: CC1=CN2C(=O)C=C(N=C2C(=C1)C(C)NC3=CC=CC=C3)N4CCOCC4 [TGX 221] + CC(=O)c1c(C)c2cnc(Nc3ccc(N4CCNCC4)cn3)nc2n(C2CCCC2)c1=O [Palbociclib] (partner 0.5 µM)
Summary of the method: as §1

[4] = compound: CC1=CN2C(=O)C=C(N=C2C(=C1)C(C)NC3=CC=CC=C3)N4CCOCC4 [TGX 221] + Cc1cc(Nc2cc(N3CCN(C)CC3)nc(Sc3ccc(NC(=O)C4CC4)cc3)n2)n[nH]1 [Tozasertib] (partner 0.1 µM)
Summary of the method: as §1

Cell Line | relative viability ([1]; first compound 0.08 µM) | relative viability ([1]; first compound 0.253 µM) | relative viability ([1]; first compound 0.8 µM) | relative viability ([1]; first compound 2.53 µM) | relative viability ([1]; first compound 8 µM) | relative viability ([2]; first compound 0.08 µM) | relative viability ([2]; first compound 0.253 µM) | relative viability ([2]; first compound 0.8 µM) | relative viability ([2]; first compound 2.53 µM) | relative viability ([2]; first compound 8 µM) | relative viability ([3]; first compound 0.08 µM) | relative viability ([3]; first compound 0.253 µM) | relative viability ([3]; first compound 0.8 µM) | relative viability ([3]; first compound 2.53 µM) | relative viability ([3]; first compound 8 µM) | relative viability ([4]; first compound 0.08 µM) | relative viability ([4]; first compound 0.253 µM) | relative viability ([4]; first compound 0.8 µM) | relative viability ([4]; first compound 2.53 µM) | relative viability ([4]; first compound 8 µM)
LXF-289 | 0.956 | 0.965 | 0.98 | 0.931 | 1 | 1.06 | 1.09 | 1.15 | 1.2 | 0.925 | 0.595 | 0.628 | 0.612 | 0.641 | 0.568 | 0.215 | 0.235 | 0.201 | 0.202 | 0.114
PC-14 | 0.95 | 0.866 | 0.898 | 0.904 | 0.874 | 0.316 | 0.272 | 0.332 | 0.363 | 0.24 | 0.539 | 0.408 | 0.543 | 0.577 | 0.397 | 0.619 | 0.615 | 0.631 | 0.589 | 0.459
EKVX | 0.756 | 0.851 | 0.727 | 0.715 | 0.637 | 0.696 | 0.699 | 0.725 | 0.746 | 0.595 | 0.313 | 0.418 | 0.358 | 0.329 | 0.299 | 0.381 | 0.343 | 0.329 | 0.317 | 0.272
NCI-H322M | 0.849 | 0.732 | 0.708 | 0.698 | 1.02 | 0.599 | 0.6 | 0.522 | 0.639 | 0.64 | 0.492 | 0.484 | 0.478 | 0.459 | 0.388 | 0.513 | 0.468 | 0.446 | 0.442 | 0.44
LC-2-ad | 0.786 |  | 0.731 | 0.668 | 0.595 | 0.873 | 0.798 | 0.871 | 0.872 | 0.824 | 0.478 | 0.519 | 0.483 | 0.503 | 0.447 | 0.451 | 0.479 | 0.454 | 0.402 | 0.396
LCLC-97TM1 | 0.145 | 0.187 | 0.199 | 0.167 | 0.188 | 0.225 | 0.259 | 0.258 | 0.278 | 0.148 | 0.184 | 0.263 | 0.238 | 0.206 | 0.232 | 0.214 | 0.179 | 0.191 | 0.239 | 0.143
NCI-H1437 | 0.973 | 0.958 | 1.04 | 0.936 | 0.629 | 1.1 | 1.27 | 1.12 | 1.22 | 1.15 | 0.294 | 0.317 | 0.324 | 0.276 | 0.295 | 0.383 | 0.406 | 0.404 | 0.361 | 0.311
NCI-H1915 | 1.02 | 1.12 | 1.16 | 1.11 | 1.04 | 0.657 | 0.754 | 0.696 | 0.697 | 0.649 | 0.491 | 0.497 | 0.536 | 0.498 | 0.473 | 0.399 | 0.406 | 0.422 | 0.389 | 0.377
